Target: Neurotensin receptor type 1 (Homo sapiens, UniProt P30989)
Assay: NTR1 Ca2+ Flux Dose Response: NTSR1 (NTR1) CHO cells are plated in 20 uL of assay media containing Ham's F12 supplemented with 10% fetal bovine serum and 0.4 mg/mL G418 at a concentration of 1.0×10^6 cells per mL into black, 384-well assay plates with clear bottoms using a Multidrop liquid handler. Assay plates are incubated at 37° C. in 5% CO2. The next day, the assay plates are aspirated to remove growth media and washed once with 20 uL of DPBS. The DPBS is then aspirated from the assay plate and replaced with 25 uL of Fluo-4 NW calcium dye prepared according to the manufacturer's recommendations then the plates are incubated for 1 hour at 37° C. Following the incubation in the presence of dye, the assay is run on a Molecular Devices FlexStation-III using 494 excitation and 516 emission wavelengths set to read for 90 seconds with the addition at 18 seconds of 5 uL of 6× final concentration of test compounds and peptide control diluted in assay media containing 0.1% BSA and no more than 9% DMSO to yield a maximum final DMSO concentration of 1.5%. […] EC50 values were calculated for those compounds tested in 8-point dose dependent response.

Neurotensin receptor type 1, sequence (P30989 whole entry): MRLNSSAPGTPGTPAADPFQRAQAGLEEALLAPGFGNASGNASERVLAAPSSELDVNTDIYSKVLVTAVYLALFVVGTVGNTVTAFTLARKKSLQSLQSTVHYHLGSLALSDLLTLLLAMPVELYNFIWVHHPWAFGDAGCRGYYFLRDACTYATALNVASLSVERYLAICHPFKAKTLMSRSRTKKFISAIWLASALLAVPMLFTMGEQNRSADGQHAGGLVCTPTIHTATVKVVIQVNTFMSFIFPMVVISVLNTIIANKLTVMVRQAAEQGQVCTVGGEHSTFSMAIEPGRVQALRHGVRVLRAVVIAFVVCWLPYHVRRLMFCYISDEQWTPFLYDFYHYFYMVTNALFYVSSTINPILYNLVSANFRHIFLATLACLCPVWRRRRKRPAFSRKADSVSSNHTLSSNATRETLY

| Compound | EC50 |
| --- | --- |
| COc1ccccc1C1CCN(c2nc(C3CC3)nc3cc(F)c(N(C)CCO)cc23)CC1 | < 0.5 µM |
| COc1ccccc1C1CCN(c2nc(C3CC3)nc3c(N(C)CCO)cccc23)CC1 | > 10 µM |
| COc1ccccc1C1CCN(c2nc(C3CC3)nc(C)c2CC(=O)N(C)CCO)CC1 | > 10 µM |
| COc1cccc2c1CCN(c1nc(C3CC3)nc3ccc(N(C)CCO)cc13)C2 | > 10 µM |

Reference: ChEMBL document CHEMBL5725860 (2018)
